Target: human VR1 (Homo sapiens, UniProt Q8NER1)
Conditions: 50 μM capsazepine; HEK-293 clones expressing hVR1; any concentration of capsaicin

Sequence of human VR1 (Q8NER1 whole entry): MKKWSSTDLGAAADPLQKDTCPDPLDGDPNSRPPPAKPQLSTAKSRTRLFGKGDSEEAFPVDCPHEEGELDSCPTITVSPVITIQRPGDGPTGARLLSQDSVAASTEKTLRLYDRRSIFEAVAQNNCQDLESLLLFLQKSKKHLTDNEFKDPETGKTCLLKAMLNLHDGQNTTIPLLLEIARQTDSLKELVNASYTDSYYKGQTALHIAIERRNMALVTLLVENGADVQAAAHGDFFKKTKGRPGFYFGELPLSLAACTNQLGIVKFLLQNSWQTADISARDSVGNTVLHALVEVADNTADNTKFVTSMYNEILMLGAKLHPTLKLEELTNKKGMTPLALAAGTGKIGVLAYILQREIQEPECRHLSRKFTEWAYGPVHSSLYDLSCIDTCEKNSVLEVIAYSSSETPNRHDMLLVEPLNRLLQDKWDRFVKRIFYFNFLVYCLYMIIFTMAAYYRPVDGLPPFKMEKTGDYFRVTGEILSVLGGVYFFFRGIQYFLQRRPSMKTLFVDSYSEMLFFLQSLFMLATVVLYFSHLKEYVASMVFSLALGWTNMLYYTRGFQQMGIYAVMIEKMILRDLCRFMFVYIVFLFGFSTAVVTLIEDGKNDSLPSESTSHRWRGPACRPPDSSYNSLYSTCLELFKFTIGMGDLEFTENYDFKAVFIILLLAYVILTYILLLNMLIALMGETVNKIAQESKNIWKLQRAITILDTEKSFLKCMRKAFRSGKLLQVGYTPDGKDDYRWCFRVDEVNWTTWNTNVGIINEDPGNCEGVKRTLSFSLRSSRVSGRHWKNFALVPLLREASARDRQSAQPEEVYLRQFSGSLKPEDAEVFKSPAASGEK

SMILES: Oc1cc2c(cc1O)CN(C(=S)NCCc1ccc(Cl)cc1)CCC2 [capsazepine]
- response to capsaicin in the presence of capsazepine: failed to respond to any concentration of capsaicin

Reference: patent US20050004133A1, “Modulators of VR1 receptor” (priority 2003, published 2005)
